For the assay, the system named is pressure-loaded ex vivo rat retinas. In kind it is cell-based. The note with it: 75 mmHg; for NDS (neuronal damage score) / NDS, Average: 0-4 scale; for NDS (neuronal damage score) / NFLT vs. RT (%) / Damaged cells in GCL: 24 h, mean±SD; for NDS (neuronal damage score) / NDS, Average / Damaged cells in GCL / NFLT, Average / Damaged cell, Average: neurosteroid 1 μM; for NDS, Average / NFLT, Average / Damaged cell, Average: Average of 9; for axonal swelling in the nerve fiber layer (NFL), light micrographs: 1 μM; for NFLT vs. RT (%): neurosteroid 1 μM (Picro 1 μM, 3-MA 10 mM where named); for Damaged cell, Average: GCL. On the procedure:
Rat ex vivo Eyecup Preparation—Rat ex vivo eyecups were prepared from 28-32 day old male Sprague-Dawley rats (Charles River Laboratories International Inc., Wilmington, MA). The anterior half of the enucleated eyes was carefully removed to make eyecup preparations. Eyecups were placed at the bottom of a 100 ml glass beaker filled with aCSF (artificial cerebrospinal fluid) containing (in mM): 124 NaCl, 5 KCl, 2 MgSO4, 2 CaCl2, 1.25 NaH2PO4, 22 NaHCO3, and 10 glucose, and incubated at 30° C. for 24 hours using a closed pressure-loading system (FIG. 1C). pH was maintained at 7.35 to 7.40. In the closed-pressure system, a glass beaker with the eyecup was placed at the bottom of an acrylic pressure chamber (2,000 ml volume). A 95% O2-5% CO2 gas mixture was delivered through disposable plastic tubing with an infusion valve and a control dial on the lid of the pressure chamber and an air filter (Cat #SLGP033RS, Merck Millipore, Billerica, MA). The plastic tubing delivering the gas terminated 1 cm above the bottom of the beaker.
Acutely prepared eyecups were incubated in gassed aCSF for at least 1 h at 30° C. before pressure loading. In some experiments, AlloP (1 μM), ent-AlloP (1 μM), and 3-MA (10 mM) were dissolved in aCSF at the time of experiment and administered by bath perfusion. Eyecup preparations were treated with these drugs for 1 h at 30° C. before pressure loading. For pressure loading, the 95% O2-5% CO2 gas mixture was infused until the pressure reading given by a manometer reached the appropriate level. The pressure was then locked by adjusting the control dial of the effusion valve, and monitored continuously for 24 h at 30° C.
Data analysis of morphometry—The middle portion of the retina was examined, greater than 1,200 μm away from the center of the optic disc along the inner limiting membrane (ILM). The nerve fiber layer thickness (NFLT) was measured by light microscopy along 5 lines perpendicular to the pigment epithelium at a distance of 15 μm from each other around 1,200 μm away from the center of the optic disc. The average NFLT was determined in 9 different light micrographs taken from 5 eyecup samples in each condition, divided by total retinal thickness, and mean±standard deviation (%) was analyzed and compared with control.
The density of degenerated cells characterized by nuclear chromatin clumping or necrosis in the GCL was determined by counting 9 fields of 500 μm length in light micrographs taken from the block of the middle retinal part 950 to 1450 μm away from the center of the optic disc.
The severity of neuronal damage was assessed by light microscopy using a neuronal damage score (NDS). The NDS was determined in 9 different light micrographs taken from 5 eyecup samples in each condition. The NDS rates neuronal damage in the inner nuclear layer (INL) and the inner plexiform layer (IPL) on a 0-4 scale with 0 signifying no neuronal damage and 4 indicating very severe damage. Criteria used in establishing the degree of neuronal damage included the extent of cytoplasmic swelling in the IPL and the number of neurons in the INL showing signs of severe cytoplasmic swelling and coarse clumping of nuclear chromatin. The highest NDS rating (4) is given when the IPL discloses apparent spongiform appearance due to dendritic swelling and when most cell bodies in the INL show severe cytoplasmic swelling and coarse clumping of nuclear chromatin. If the damage is of a lesser degree, a rating of 3 is given. NDS 2 is assigned when cell bodies in the INL are sporadically swollen. […] Fine dendritic swelling in a limited area of the IPL without damage in the INL is described by NDS 1.
NFLT, density of degenerated cells in the GCL, and NDS were determined as the measurement of 10 different areas from three eyes per experimental condition. These morphometrical parameters were assessed by three raters, who remained unaware of the experimental condition. […]

Each structure is given as a SMILES string.

Take `CC(=O)[C@H]1CC[C@H]2[C@@H]3CC[C@H]4C[C@H](O)CC[C@]4(C)[C@H]3CC[C@]12C` [AlloP, allopregnanolone]: the “NDS (neuronal damage score)” value turned out to be 0.2 ± 0.4; the “NDS, Average” value is on record as 0.2; the “axonal swelling in the nerve fiber layer (NFL), light micrographs” value is on record as “attenuated”; the “NFLT vs. RT (%)” value was 1.5 ± 0.6%. Besides, the “Damaged cells in GCL” value is on record as 2.0 ± 1.7 per 250 μm of retina; the “NFLT, Average” value is reported as 1.5%; the “Damaged cell, Average” value turned out to be 2.0.

Regarding `CC(=O)[C@@H]1CC[C@@H]2[C@H]3CC[C@@H]4C[C@@H](O)CC[C@@]4(C)[C@@H]3CC[C@]21C` [ent-AlloP, ent-allopregnanolone], the “NDS (neuronal damage score)” value was 0.2 ± 0.4; the “NDS, Average” value is recorded as 0.2; the “axonal swelling in the nerve fiber layer (NFL), light micrographs” value was “substantially inhibited”; the “NFLT vs. RT (%)” value is recorded as 1.6 ± 0.6%. Besides, the “Damaged cells in GCL” value was 1.9 ± 1.2 per 250 μm of retina; the “NFLT, Average” value stood at 1.6%; the “Damaged cell, Average” value was found to be 1.9.
